Patent publication US20220184222A1, “BICYCLE TOXIN CONJUGATES AND USES THEREOF” (BicycleTx Limited, priority 2019, published 2022)
Starred links: 1 amine or outer side, 2 acyl side, 3 side chain; linkers in the order of their positions; H or OH if unused. Non-standard residues stand in square brackets, D forms with d. Residues, ends and D or L forms follow the SMILES beside them. *: point of attachment. Dolaproine = CO[C@@H]([C@@H]1CCCN1)[C@@H](C)C(=O)O; Dil = CC[C@H](C)[C@H](NC)[C@@H](CC(=O)O)OC; PABC = O=C(OCc1ccc(N[*:1])cc1)[*:2]; X1 = O=C(CCCC(=O)*)ON1C(=O)CCC1=O; X2 = C[C@@H](N*)[C@@H](O)c1ccccc1; Cit = NC(=O)NCCC[C@H](N)C(=O)O; NMeV = CN[C@H](C(=O)O)C(C)C

Assays:
[1] = system: PC-3 xenograft; experiment: In vivo efficacy in PC-3 xenograft, male Balb/c nude mice (Example 3); parameters: species or system Mus Musculus
Experimental: The objective of the research is to evaluate the in vivo anti-tumor efficacy of test articles in treatment of PC-3 xenograft in Balb/c nude mice.
The tumor cells were maintained in F-12K medium supplemented with 10% heat inactivated fetal bovine serum at 37° C. in an atmosphere of 5% CO2 in air. The tumor cells were routinely subcultured twice weekly. The cells growing in an exponential growth phase were harvested and counted for tumor inoculation.
Each mouse was inoculated subcutaneously at the right flank with PC-3 tumor cells (10×10^6) in 0.2 ml of PBS for tumor development. 52 animals were randomized when the average tumor volume reached 454 mm^3. The test article administration and the animal numbers in each group were shown in the experimental design table.
The major endpoint was to see if the tumor growth could be delayed or mice could be cured. Tumor volume was measured three times weekly in two dimensions using a caliper, and the volume was expressed in mm3 using the formula: V=0.5 a×b^2 where a and b are the long and short diameters of the tumor, respectively. The tumor size was then used for calculations of T/C value. The T/C value (in percent) is an indication of antitumor effectiveness; T and C are the mean volumes of the treated and control groups, respectively, on a given day.
TGI was calculated for each group using the formula: TGI (%)=[1−(Ti−T0)/(Vi−V0)]×100; Ti is the average tumor volume of a treatment group on a given day, T0 is the average tumor volume of the treatment group on the day of treatment start, Vi is the average tumor volume of the vehicle control group on the same day with Ti, and V0 is the average tumor volume of the vehicle group on the day of treatment start.
Tumor growth inhibition rate for test articles in the PC-3 xenograft model was calculated based on tumor volume measurements at day 20 after the start of the treatment.

[2] = system: pHH3; experiment: In vivo PD in PC-3 CDX model: tumor pHH3 IHC, mitotic arrest (Example 4); parameters: species or system Mus Musculus; details: single dose
Experimental: The objective of the research is to evaluate the in vivo PK/PD of test agents in treatment of PC-3 CDX model in Balb/c nude mice.
Each mouse was inoculated subcutaneously at the right flank with PC-3 tumor cells (10×10^6) in 0.2 mL of PBS for tumor development. The animals were randomized and dosed when the average tumor volume reached approximately 440 mm^3 for the PK/PD study. The test article administration and time points in each group were shown in the experimental design table.
Mice were randomly grouped based on tumor volume and dosed as experimental design. Plasma, serum, muscle and tumors were collected at 1 h, 2 h, 8 h, 24 h, 48 h, 72 h and 96 h post dosing.
3 tumors of a mouse cohort were embed into 1 FFPE block.
• 5 μm FFPE tissue section loaded on Ventana XT; • Deparaffinization was selected; • EDTA based CC1 Standard heat antigen retravel was selected; • Option 1 (Protein blocker, Invitrogen Cat #1890588) was selected and incubate for 32 Min; • CC3 antibody (CST Cat #9661) 1:200 dilution was applied and incubated for 60 min at 37° C. • Apply One Drop of [OMap anti-Rb HRP] […]

[3] = system: Panc033; experiment: PDAC PDX Panc033 xenograft efficacy (Example 5); type: in vivo, NSG mice; details: 3 mg/kg intravenously weekly, 4-week treatment period
Experimental: BT5528 and Vehicle were prepared as described in the examples above, and tested in treatment of Pancreatic Ductal Adenocarcinoma (PDAC) in PDX models. PDX models effectively capture patient responses to oncology therapy in a heterogeneous cohort of patients with solid tumors with 80-100% correlation between the PDX and patient response (Izumchenko et al. 2017)
Pancreatic ductal adenocarcinoma patient derived xenograft tumors (PDAC PDX; Panc033 and Panc163) were implanted subcutaneously from source tumors into the flank of NSG mice. Tumor bearing animals were randomized to receive intravenously a weekly dosing of vehicle or 3 mg/kg BT5528. Tumor sizes were monitored by caliper measurements.

`CC[C@H](C)[C@@H]([C@@H](CC(=O)N1CCC[C@H]1[C@H](OC)[C@@H](C)C(=O)N[C@H](C)[C@@H](O)c1ccccc1)OC)N(C)C(=O)[C@@H](NC(=O)[C@H](C(C)C)N(C)C(=O)OCc1ccc(NC(=O)[C@H](CCCNC(N)=O)NC(=O)[C@@H](NC(=O)CCCC(=O)ON2C(=O)CCC2=O)C(C)C)cc1)C(C)C` [BT5528] (X1-V[Cit][PABC][NMeV]V[Dil][Dolaproine]-X2) was tested, and the “tumor relapse after ceasing the treatment” value (“tumor relapse” for short) ([1]; 0.5 mg/kg qw or 0.5 mg/kg q2w) was “obvious tumor relapse after ceasing the treatment”, the “tumor relapse” value ([1]; 1.5 mg/kg q2w) was “tumor relapse after ceasing the treatment” and the “tumor relapse” value ([1]; 1.5 mg/kg qw) was “didn't show any tumor relapse until day 48”. The “further treatment after relapse” value ([1]; 1.5 mg/kg qw from day 52 in mice first treated with 0.5 mg/kg qw or q2w) was “worked well on the tumor regression”, the “further dosing after relapse” value ([1]; 1.5 mg/kg qw from day 52 in mice first treated with 1.5 mg/kg q2w) was “didn't work on complete tumor regression” and the T/C ([1]; 0.167 mpk i.v. qw, day 20) was 50.2%. The TGI ([1]; 0.167 mpk i.v. qw, day 20) was 61.4%, the Tumor volume ([1]; 0.167 mpk i.v. qw, day 20) was 1188 mm^3 and the T/C ([1]; 0.5 mpk i.v. q2w, day 20) was 22.4%. It also gave a TGI ([1]; 0.5 mpk i.v. q2w, day 20) of 96.0%, a Tumor volume ([1]; 0.5 mpk i.v. q2w, day 20) of 530 mm^3 and a Tumor volume ([1]; 0.5 mpk i.v. qw, day 0) of 451 mm^3. The Tumor volume ([1]; 0.5 mpk i.v. qw, day 2) was 622 mm^3, the Tumor volume ([1]; 0.5 mpk i.v. qw, day 4) was 519 mm^3 and the Tumor volume ([1]; 0.5 mpk i.v. qw, day 6) was 460 mm^3. It also gave a Tumor volume ([1]; 0.5 mpk i.v. qw, day 8) of 398 mm^3, a Tumor volume ([1]; 0.5 mpk i.v. qw, day 10) of 329 mm^3 and a Tumor volume ([1]; 0.5 mpk i.v. qw, day 13) of 260 mm^3. It also gave a Tumor volume ([1]; 0.5 mpk i.v. qw, day 15) of 249 mm^3, a Tumor volume ([1]; 0.5 mpk i.v. qw, day 17) of 231 mm^3 and a T/C ([1]; 0.5 mpk i.v. qw, day 20) of 9.9%. The TGI ([1]; 0.5 mpk i.v. qw, day 20) was 111.4%, the Tumor volume ([1]; 0.5 mpk i.v. qw, day 20) was 234 mm^3 and the T/C ([1]; 1.5 mpk i.v. q2w, day 20) was 5.4%. It also gave a TGI ([1]; 1.5 mpk i.v. q2w, day 20) of 117.0%, a Tumor volume ([1]; 1.5 mpk i.v. q2w, day 20) of 128 mm^3 and a Tumor volume ([1]; 1.5 mpk i.v. qw, day 0) of 458 mm^3. The Tumor volume ([1]; 1.5 mpk i.v. qw, day 2) was 587 mm^3, the Tumor volume ([1]; 1.5 mpk i.v. qw, day 4) was 494 mm^3 and the Tumor volume ([1]; 1.5 mpk i.v. qw, day 6) was 363 mm^3. For the same compound, the Tumor volume ([1]; 1.5 mpk i.v. qw, day 8) was 283 mm^3, the Tumor volume ([1]; 1.5 mpk i.v. qw, day 10) was 237 mm^3 and the Tumor volume ([1]; 1.5 mpk i.v. qw, day 17) was 155 mm^3. It also gave a T/C ([1]; 1.5 mpk i.v. qw, day 20) of 5.5%, a TGI ([1]; 1.5 mpk i.v. qw, day 20) of 117.2% and a Tumor volume ([1]; 1.5 mpk i.v. qw, day 20) of 131 mm^3. For the same compound, the “treatment of relapsed Docetaxel-pretreated mice” value ([1]; BT5528 1.5 mg/kg qw from day 42) was “worked well on tumor regression”, the “measurable tumor regression by day after dosing” value ([1]; PC-3 xenograft) was at most 4 days and the “efficacy with intermittent dosing” value ([1]; dosing every 2 weeks) was “efficacious with intermittent dosing”. The “mitotic arrest in tumor measurable by pHH3 IHC, time after dose” value [2] was at most 24 hours, the “mitotic arrest of tumor cells, time post-dose” value [2] was 24 to 48 h and the “anti-tumor activity (tumor size by caliper)” value [3] was “significant anti-tumor activity from reduced tumor growth rate to decreasing tumor volumes”.
